Results taken from patent US20240391964A1, “COMPOSITIONS AND METHODS FOR THE TREATMENT OF CANCER” (The University of Western Australia, priority 2020, published 2024).

How the values were obtained:
T11 cells [1] = test: Cell viability, combination with docetaxel; format: cell-based, murine; conditions: T11, 48 hours
Description: FIG. 15 presents the results of cell viability assays of T11 breast cancer cells treated with melittin or RGD1-melittin alone and in combination with docetaxel for 48 hours. Representative plots of the combination treatments are presented as mean±SEM.
The murine p53 TNBC cell line T11 was treated with docetaxel in combination with either melittin or RGD1-melittin, and cell viability assays were conducted to determine the combination effect between the treatments (FIG. 15).

[2] = system: PD-L1 in T11, SUM159 and SKBR3 cells; test: qRT-PCR of PD-L1 expression; format: cell-based; conditions: 24 h at IC50; p<0.005 T11, p<0.05 SUM159, p<0.005 SKBR3
Description: The level of PD-L1 expression was also measured in T11, SUM159 and SKBR3 treated with active RGD1-melittin and mutant RGD1-melittin peptides, or vehicle treated only, using qRT-PCR.
Cells were seeded overnight at a density of 3×105 in a p6-well plate. […] Cells were washed once with PBS before RNA was extracted from the cells using QIAzol Lysis. Reagent (QIAGEN) according to manufacturer's instructions. 500 ng of purified total RNA was used as the template for cDNA synthesis using the High Capacity cDNA Reverse Transcription Kit (Applied Biosystems). Relative quantification of PD-L1 transcript expression was obtained by quantitative real-time PCR (qRT-PCR) using fluorescent TaqMan probes (Applied Biosystems) and run on the ViiA 7TM Real-Time PCR machine (Applied Biosystems). Data were analysed by QuantStudio Real-Time PCR Software (Applied Biosystems) and results were expressed as fold change compared to untreated cells, respectively, after normalization against the GAPDH mRNA levels.

SUM159 cells [3] = test: Immunofluorescence subcellular localization with anti-melittin antibody; format: cell-based, human; conditions: 30 minutes, IC50 concentrations
[4] = system: Ki-67 and PD-L1 in T11, SUM159 and SKBR3 cells; test: Immunofluorescence of Ki-67 and PD-L1; format: cell-based; conditions: 24 h at IC50 concentrations, all three cell lines
Description: The expression of PD-L1 of TNBC cells (T11 and SUM159) and HER2-enriched breast cancer cells (SKBR3) treated with active RGD1-melittin and mutant RGD1-melittin (DEDE RGD1-melittin) was measured using immunofluorescence.
Cells were seeded overnight on coverslips at a density of 3×105 in a p24-well plate coated with poly-L-lysine (Sigma-Aldrich) for 20 min and then washed twice with purified water. […] The cells were washed three times with PBS and then incubated with a goat α-mouse secondary Alexa Fluor 488-conjugated antibody (Thermo Fisher Scientific #A11001, 1:500) and Hoechst-33258 (1:5000) in PBS for 1 h at room temperature. After three more washes of PBS, the coverslip containing cells were mounted onto glass […] with SlowFade Diamond Antifade Mountant (Thermo Fisher Scientific). Slides were imaged using the confocal fluorescence Nikon Ti inverted microscope. Images were taken at 40× magnification and processed using ImageJ.

SUM159 cells [5] = conditions: 24 hours, mean±SEM
Description: To assess anticancer efficacy and selectivity, both venom from European honeybees collected in Perth, Australia and melittin peptide were evaluated in dose-response assays in a panel of cell lines representative of the intrinsic breast cancer subtypes and in non-transformed cells.

T11 cells [6] = test: Cell viability, combination with omomyc; format: cell-based, murine; conditions: T11, 24 hours
Description: FIG. 16 presents the results of cell viability assays of T11 breast cancer cells treated with melittin or RGD1-melittin alone and in combination with omomyc for 24 hours. Representative plots of the combination treatments are presented as mean±SEM.
The murine p53 TNBC cell line T11 was treated with omomyc in combination with either melittin or RGD1-melittin, and cell viability assays were conducted to determine the combination effect between the treatments (FIG. 16).

[7] = system: T11, OVCAR3 and COV362 cells; test: Cell viability, RGD1-melittin with cisplatin; format: cell-based; conditions: 24 h, non-constant ratio
Description: (§1) Cell viability assays of T11, OVCAR3, and COV362 cells treated with RGD1-melittin alone and in combination with cisplatin were performed. Cells were seeded overnight at a density of 5000 cells/p96-well plate and treated with active RGD1-melittin alone or combined with […] and administered at concentrations indicated in a non-constant ratio in the respective cell lines for 24 h. Cell viability was assessed using the CellTiter-Glo® assay.
(§2) The combination effect for different fractions of cells impacted in each combination were calculated using the Chou and Talalay algorithm included in the freely available CompuSyn software. Combination index (CI)<1 means synergism, CI=1 means additive and CI>1 means antagonism.

OVCAR3 cells = format: cell-based
Description: (§3) The OVCAR3 and COV362 ovarian cancer cell lines were treated with active RGD1-melittin and mutant RGD1-melittin (DEDE-RGD1-melittin). The COV362 cells were cultured in DMEM low glucose medium supplemented with 10% FBS. The OVCAR3 cells were grown in RPMI medium supplemented with 20% FBS. Cells were seeded overnight at a density of 5000 cells/p96-well plate and treated with active RGD1-melittin and mutant RGD1-melittin (RGD1-DEDE melittin), for 24 h at concentrations up to 20 µM. After treatments, cell viability was assessed using the CellTiter-Glo® assay according to the manufacturer's protocol (Promega; NSW, Australia). Luminescence signals were measured using the EnVision Multilabel Plate Reader (PerkinsElmer Inc.; Waltham, MA, USA). IC50s were calculated and transformed 95% confidence intervals provided by GraphPad Prism 6 software analysis (GraphPad Software Inc., San Diego, CA, USA).

COV362 cells = format: cell-based
Description: as §3

[8] = system: T11, OVCAR3, SUM159 and SKBR3 cells; test: Cell viability, RGD1-melittin with docetaxel; format: cell-based; conditions: 24 h, non-constant ratio
Description: as §1, with “OVCAR3, SUM159” for “OVCAR3,”, “SKBR3” for “COV362”, “docetaxel” for “cisplatin”
as §2

SUM159 cells [9] = test: Cleaved caspase-3 immunoblot; format: cell-based, human; conditions: 24 hours
T11 cells [10] = test: Cell viability assay of melittin variants, T11; format: cell-based, murine; conditions: t-test p=0.652
Description: FIG. 5 presents the lack of anticancer activity of DEDE-melittin, and the breast cancer cell selectivity of the melittin fusion peptide RGD1-melittin. FIG. 5A presents cell viability assays of TNBC (SUM159) and HER2-enriched (SKBR3) cells treated with DEDE-melittin for 24 hours. FIG. 5B presents cell viability assays of T11 cells treated with melittin, RGD1-melittin, SV40-melittin, TAT-melittin and DEDE-melittin. FIG. 5C presents cell viability assays of human dermal fibroblasts (HDFa) and SUM159 treated with melittin (top) and RGD1-melittin (bottom) for 24 hours.
To assess the functional role of the positive (K21RKR24) sequence (SEQ ID NO: 4) in the C-terminus of melittin, a negatively charged melittin peptide (D21EDE24-melittin; SEQ ID NO: 6) was designed. These negative residues were predicted to disrupt the binding of melittin with the plasma membrane. […] However, the potency of melittin and SV40-melittin were greater than TAT-melittin, which could be due to the larger size of TAT.

With CC[C@H](C)[C@H](NC(=O)CNC(=O)[C@H](CCCCN)NC(=O)[C@H](CCCCN)NC(=O)[C@H](CC(C)C)NC(=O)[C@H](CCCNC(=N)N)NC(=O)CNC(=O)[C@H](CC(C)C)NC(=O)[C@H](CC(=O)O)NC(=O)CNC(=O)[C@H](CCCNC(=N)N)NC(=O)CNC(=O)[C@@H](N)Cc1c[nH]cn1)C(=O)NCC(=O)N[C@@H](C)C(=O)N[C@H](C(=O)N[C@@H](CC(C)C)C(=O)N[C@@H](CCCCN)C(=O)N[C@H](C(=O)N[C@@H](CC(C)C)C(=O)N[C@H](C(=O)N[C@H](C(=O)NCC(=O)N[C@@H](CC(C)C)C(=O)N1CCC[C@H]1C(=O)N[C@@H](C)C(=O)N[C@@H](CC(C)C)C(=O)N[C@H](C(=O)N[C@@H](CO)C(=O)N[C@@H](Cc1c[nH]c2ccccc12)C(=O)N[C@H](C(=O)N[C@@H](CCCCN)C(=O)N[C@@H](CCCNC(=N)N)C(=O)N[C@@H](CCCCN)C(=O)N[C@@H](CCCNC(=N)N)C(=O)N[C@@H](CCC(N)=O)C(=O)N[C@@H](CCC(N)=O)C(=O)O)[C@@H](C)CC)[C@@H](C)CC)[C@@H](C)O)[C@@H](C)O)C(C)C)C(C)C [RGD1-melittin] the “combination effect with docetaxel on cell viability” value (T11 cells [1]) was “beneficial effect when combined with docetaxel”, the “level of PD-L1 (qRT-PCR)” value [2] was “significantly reduce” and the “subcellular localization / anti-melittin staining” value (SUM159 cells [3]) was “distinctively targeted to the plasma membrane alone”. For the same compound, the “PD-L1 expression (immunofluorescence)” value [4] was “reduced”, the “cell proliferation (Ki-67)” value [4] was “reduced” and the “ratio of the IC50s of HDFa/SUM159” value (SUM159 cells [5]) was 2.73±0.14. For the same compound, the “combination effect with omomyc on cell viability” value (T11 cells [6]) was “beneficial effect when combined with omomyc”, the “sensitization to cisplatin (cell viability, combination index)” value [7] was “significantly sensitized all three tested cell lines to cisplatin” and the “fold lower IC50 than active melittin” value (OVCAR3 cells; OVCAR3) was “approximately 6 fold”. The IC50 (OVCAR3 cells; OVCAR3, 24 h) was 3360 nM, the “fold lower IC50 than active melittin” value (COV362 cells; COV362) was “approximately 3.7 fold” and the IC50 (COV362 cells; COV362, 24 h) was 2100 nM. For the same compound, the “sensitization to docetaxel (cell viability, combination index)” value [8] was “significantly sensitized all four tested cell lines to docetaxel”, the “induction of apoptosis (cleaved caspase-3)” value (SUM159 cells [9]) was “confirmed the anticancer activity” and the “IC50 compared to parental melittin” value (T11 cells [10]) was “not significantly different compared to parental melittin”.
